Results published in PubChem BioAssay (NCI).
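96-well plates; 48 h exposure; 5 concentrations. Endpoints by linear interpolation between flanking doses. Not reached: highest tested concentration assigned. At the TGI there is no net growth.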

What was measured:
Experiment in all cases: NCI tumour cell line growth inhibition, 48 h
RXF-631 renal = system: RXF-631 renal
P388 leukemia = system: P388 leukemia
P388/ADR leukemia = system: P388/ADR leukemia
SN12K1 renal = system: SN12K1 renal

SMILES | TGI (RXF-631 renal) [µM] | other results
CCCCCCCCCCCCCCCCCC(=O)NCCCNCCCNC(=O)CCCCCCCCCCCCCCCCC | > 100 | –
Cc1[nH]n(-c2ccccc2)c(=S)c1C(=O)c1ccccc1 | 61.6 | –
C=C1C(=O)C=C2C=C3C(=O)C(C)(C)C[C@]3(O)C12C (stereo partly drawn) | 30.9 | –
CCN(CC)CC(C)(C)C(=O)/C=C/c1ccc(C)cc1 | 55.7 | –
c1ccc2cc3n[se]nc3cc2c1 | > 100 | –
Nc1nc(=O)n(C2OC(CO)C(O)C2O)cc1F (stereo not drawn) | – | TGI (P388 leukemia): 0.0341 µM; TGI (P388/ADR leukemia): 0.182 µM; TGI (SN12K1 renal): > 100 µM
